# Measurements reported in US9156872B2, “2′-azido substituted nucleoside derivatives and methods of use thereof for the treatment of viral diseases” (priority 2011, dated 2015).
# System: HCV replicon cells
# Assay: Cell-based HCV replicon assay (replicon RNA by Taqman real time PCR)
# Settings: HCV replicon 1b, cells harvested on day 3; read-out: 1b EC50
row,SMILES,EC50 [nM]
1,"CCOc1nc(N)nc2c1ncn2[C@@H]1O[C@@H]2COP(=O)(OC3CCC3)O[C@H]2[C@@]1(C)N=[N+]=[N-] (single isomer, unassigned) [Compound 108]",24100
2,"C[C@@]1(N=[N+]=[N-])[C@@H]2OP(=O)(OC3CCCC3)OC[C@H]2O[C@H]1n1ccc(=O)[nH]c1=O (single isomer, unassigned) [Compound 562]",400
3,C[C@@]1(N=[N+]=[N-])[C@@H]2OP(=O)(OC3CCCC3)OC[C@H]2O[C@H]1n1ccc(=O)[nH]c1=O (some centres unmarked) [Compound 87],3100

# Same assay, conditions: Hepatitis C virus, 72 h, HCV replicon 1b, cells harvested on day 3; read-out: 1b EC50
row,SMILES,EC50 [nM]
1,CCCOP1(=O)OC[C@H]2O[C@@H](n3ccc(=O)[nH]c3=O)[C@](C)(N=[N+]=[N-])[C@@H]2O1 (some centres unmarked) [Compound 85],> 100000
2,"COC(=O)[C@H](C)NP1(=O)OC[C@H]2O[C@@H](n3ccc(N)nc3=O)[C@](C)(N=[N+]=[N-])[C@@H]2O1 (single isomer, unassigned) [Compound 529]",59000

# Same assay, conditions: Hepatitis C virus, 72 h, read-out: 1b EC50
row,SMILES,EC50 [nM]
1,CCCCOC(=O)[C@H](C)NP(=O)(OC[C@H]1O[C@@H](n2ccc(=O)[nH]c2=O)[C@](C)(N=[N+]=[N-])[C@@H]1O)Oc1ccccc1Cl (some centres unmarked) [Compound 377],6800
2,CCOC(=O)[C@H](C)NP(=O)(OC[C@H]1O[C@@H](n2cnc3c(NC4CC4)nc(N)nc32)[C@](C)(N=[N+]=[N-])[C@@H]1O)Oc1ccccc1 (some centres unmarked) [Compound 387],1900
3,COc1nc(N)nc2c1ncn2[C@@H]1O[C@H](COP(=O)(N[C@@H](C)C(=O)OC(C)C)Oc2ccc(Cl)c(Cl)c2)[C@@H](O)[C@@]1(C)N=[N+]=[N-] (some centres unmarked) [Compound 244],6000
4,CCOc1nc(N)nc2c1ncn2[C@@H]1O[C@H](COP(=O)(N[C@@H](C)C(=O)OC(C)C)Oc2ccc(Cl)c(Cl)c2)[C@@H](O)[C@@]1(C)N=[N+]=[N-] (some centres unmarked) [Compound 348],5000
5,CCOc1nc(N)nc2c1ncn2[C@@H]1O[C@H](COP(=O)(N[C@@H](C)C(=O)OC2CCCCC2)Oc2ccc(F)cc2)[C@@H](O)[C@@]1(C)N=[N+]=[N-] (some centres unmarked) [Compound 64],400
6,CCCCOC(=O)[C@H](C)NP(=O)(OC[C@H]1O[C@@H](n2ccc(=O)[nH]c2=O)[C@](C)(N=[N+]=[N-])[C@@H]1O)Oc1ccc(Cl)c(Cl)c1 (some centres unmarked) [Compound 372],6000
7,COC(=O)[C@H](C)NP(=O)(OC[C@H]1O[C@@H](n2cnc3c(N4CCC4)nc(N)nc32)[C@](C)(N=[N+]=[N-])[C@@H]1O)Oc1ccccc1Cl (some centres unmarked) [Compound 388],1600
8,"COc1nc(N)nc2c1ncn2[C@@H]1O[C@H](COP(=O)(N[C@@H](C)C(=O)OC(C)C)Oc2ccc(Cl)cc2)[C@@H](O)[C@@]1(C)N=[N+]=[N-] (single isomer, unassigned) [Compound 293]",5700
9,COc1nc(N)nc2c1ncn2[C@@H]1O[C@H](COP(=O)(N[C@@H](C)C(=O)OCC(C)C)Oc2ccccc2)[C@@H](O)[C@@]1(C)N=[N+]=[N-] (some centres unmarked) [Compound 245],400
10,CCOc1nc(N)nc2c1ncn2[C@@H]1O[C@H](COP(=O)(N[C@@H](C)C(=O)OC)Oc2cccc3ccccc23)[C@@H](O)[C@@]1(C)N=[N+]=[N-] (some centres unmarked) [Compound 70],400
11,COC(=O)[C@H](C)NP(=O)(OC[C@H]1O[C@@H](n2cnc3c(OC)nc(N)nc32)[C@](C)(N=[N+]=[N-])[C@@H]1O)Oc1ccc(Cl)cc1 (some centres unmarked) [Compound 79],200
12,CCOc1nc(N)nc2c1ncn2[C@@H]1O[C@H](COP(=O)(N[C@@H](C)C(=O)OCc2ccccc2)Oc2ccccc2)[C@@H](O)[C@@]1(C)N=[N+]=[N-] (some centres unmarked) [Compound 69],2200
13,CCOc1nc(N)nc2c1ncn2[C@@H]1O[C@H](COP(=O)(N[C@@H](C)C(=O)OC(C)C)Oc2ccc3c(c2)OCO3)[C@@H](O)[C@@]1(C)N=[N+]=[N-] (some centres unmarked) [Compound 72],800
14,"CCOC(=O)[C@H](C)NP(=O)(OC[C@H]1O[C@@H](n2cnc3c(OCC)nc(N)nc32)[C@](C)(N=[N+]=[N-])[C@@H]1O)Oc1ccccc1Cl (single isomer, unassigned) [Compound 358]",2300
15,COC(=O)[C@H](C)NP(=O)(OC[C@H]1O[C@@H](n2ccc(=O)[nH]c2=O)[C@](C)(N=[N+]=[N-])[C@@H]1O)Oc1ccc(Cl)cc1 (some centres unmarked) [Compound 50],4000
16,"CCOc1nc(N)nc2c1ncn2[C@@H]1O[C@H](COP(=O)(N[C@@H](C)C(=O)OC)Oc2cccc3ccccc23)[C@@H](O)[C@@]1(C)N=[N+]=[N-] (single isomer, unassigned) [Compound 355]",1300
17,COC(=O)[C@H](C)NP(=O)(OC[C@H]1O[C@@H](n2ccc(=O)[nH]c2=O)[C@](C)(N=[N+]=[N-])[C@@H]1O)Oc1ccccc1 (some centres unmarked) [Compound 5],3300
18,CCOc1nc(N)nc2c1ncn2[C@@H]1O[C@H](COP(=O)(N[C@@H](C)C(=O)OC)Oc2ccccc2Cl)[C@@H](O)[C@@]1(C)N=[N+]=[N-] (some centres unmarked) [Compound 58],500
19,COC(=O)[C@H](C)NP(=O)(OC[C@H]1O[C@@H](n2ccc(=O)[nH]c2=O)[C@](C)(N=[N+]=[N-])[C@@H]1O)Oc1cc(C)ccc1C(C)C (some centres unmarked) [Compound 379],1200
20,CCOC(=O)[C@H](C)NP(=O)(OC[C@H]1O[C@@H](n2cnc3c(OCC)nc(N)nc32)[C@](C)(N=[N+]=[N-])[C@@H]1O)Oc1ccc(F)cc1 (some centres unmarked) [Compound 141],200
21,"COC(=O)[C@H](C)NP(=O)(OC[C@H]1O[C@@H](n2ccc(N)nc2=O)[C@](C)(N=[N+]=[N-])[C@@H]1O)Oc1ccc(Cl)c(Cl)c1 (single isomer, unassigned) [Compound 343]",61000
22,CCOc1nc(N)nc2c1ncn2[C@@H]1O[C@H](COP(=O)(N[C@@H](C)C(=O)OC)Oc2ccc(Cl)cc2)[C@@H](O)[C@@]1(C)N=[N+]=[N-] (some centres unmarked) [Compound 63],400

# Same assay, conditions: read-out: 1b EC50
row,SMILES,EC50 [nM]
1,"CCOc1nc(N)nc2c1ncn2[C@@H]1O[C@H](COP(=O)(N[C@@H](C)C(=O)OC2CCCCC2)Oc2ccc(Cl)cc2)[C@@H](O)[C@@]1(C)N=[N+]=[N-] (single isomer, unassigned) [Compound 314]",1300
2,"CCOc1nc(N)nc2c1ncn2[C@@H]1O[C@H](COP(=O)(N[C@@H](C)C(=O)OC(C)C)Oc2ccccc2)[C@@H](O)[C@@]1(C)N=[N+]=[N-] (single isomer, unassigned) [Compound 166]",800
3,"COC(=O)c1ccccc1OP(=O)(N[C@@H](C)C(=O)OC)OC[C@H]1O[C@@H](n2ccc(=O)[nH]c2=O)[C@](C)(N=[N+]=[N-])[C@@H]1O (single isomer, unassigned) [Compound 216]",1300
4,COC(=O)[C@H](C)NP(=O)(OC[C@H]1O[C@@H](n2ccc(=O)[nH]c2=O)[C@](C)(N=[N+]=[N-])[C@@H]1O)Oc1ccc(Cl)cc1 (some centres unmarked) [Compound 325],4000
5,C[C@H](NP(=O)(OC[C@H]1O[C@@H](n2ccc(=O)[nH]c2=O)[C@](C)(N=[N+]=[N-])[C@@H]1O)Oc1ccc(F)cc1)C(=O)OC1CCCCC1 (some centres unmarked) [Compound 89],> 100000
6,"COc1nc(N)nc2c1ncn2[C@@H]1O[C@H](COP(=O)(N[C@@H](C)C(=O)OC2CCCCC2)Oc2ccc(F)cc2)[C@@H](O)[C@@]1(C)N=[N+]=[N-] (single isomer, unassigned) [Compound 264]",200
7,"CCCCOC(=O)[C@H](C)NP(=O)(OC[C@H]1O[C@@H](n2cnc3c(OC)nc(N)nc32)[C@](C)(N=[N+]=[N-])C1O)Oc1ccccc1 (single isomer, unassigned) [Compound 263]",1500
8,"CCOc1nc(N)nc2c1ncn2[C@@H]1O[C@H](COP(=O)(N[C@@H](C)C(=O)OCC(C)(C)C)Oc2ccccc2)[C@@H](O)[C@@]1(C)N=[N+]=[N-] (single isomer, unassigned) [Compound 161]",1700
9,"COC(=O)[C@H](C)NP(=O)(OC[C@H]1O[C@@H](n2ccc(=O)[nH]c2=O)[C@](C)(N=[N+]=[N-])[C@@H]1O)Oc1cccc2ccccc12 (single isomer, unassigned) [Compound 217]",2100
10,CCOC(=O)[C@H](C)NP(=O)(OC[C@H]1O[C@@H](n2cnc3c(OCC)nc(N)nc32)[C@](C)(N=[N+]=[N-])[C@@H]1O)Oc1ccccc1 (some centres unmarked) [Compound 558],1000
11,CCOC(=O)[C@H](C)NP(=O)(OC[C@H]1O[C@@H](n2ccc(=O)[nH]c2=O)[C@](C)(N=[N+]=[N-])[C@@H]1O)Oc1ccc(Cl)cc1 (some centres unmarked) [Compound 323],5300
12,"CCCCOC(=O)[C@H](C)NP(=O)(OC[C@H]1O[C@@H](n2cnc3c(OC)nc(N)nc32)[C@](C)(N=[N+]=[N-])C1O)Oc1cccc2ccccc12 (single isomer, unassigned) [Compound 298]",100
13,C[C@H](NP(=O)(OC[C@H]1O[C@@H](n2ccc(N)nc2=O)[C@](C)(N=[N+]=[N-])[C@@H]1O)Oc1ccccc1)C(=O)OC1CCCC1 (some centres unmarked) [Compound 336],15000
14,"COC(=O)[C@H](C)NP(=O)(OC[C@H]1O[C@@H](n2cnc3c(OC)nc(N)nc32)[C@](C)(N=[N+]=[N-])[C@@H]1O)Oc1ccc(F)cc1 (single isomer, unassigned) [Compound 266]",2400
15,"COc1nc(N)nc2c1ncn2[C@@H]1O[C@H](COP(=O)(N[C@@H](C)C(=O)OC(C)C)Oc2ccccc2)C(O)[C@@]1(C)N=[N+]=[N-] (single isomer, unassigned) [Compound 253]",600
16,"COc1nc(N)nc2c1ncn2[C@@H]1O[C@H](COP(=O)(N[C@@H](C)C(=O)OCC(C)C)Oc2ccc(Cl)cc2)[C@@H](O)[C@@]1(C)N=[N+]=[N-] (single isomer, unassigned) [Compound 296]",100
17,"CC(C)COC(=O)[C@H](C)NP(=O)(OC[C@H]1O[C@@H](n2ccc(=O)[nH]c2=O)[C@](C)(N=[N+]=[N-])[C@@H]1O)Oc1ccccc1 (single isomer, unassigned) [Compound 210]",3300
18,"CCOc1nc(N)nc2c1ncn2[C@@H]1O[C@H](COP(=O)(N[C@@H](C)C(=O)OC(C)C)Oc2ccc(F)cc2)[C@@H](O)[C@@]1(C)N=[N+]=[N-] (single isomer, unassigned) [Compound 365]",1100
19,COC(=O)[C@H](C)NP(=O)(OC[C@H]1O[C@@H](n2ccc(=O)[nH]c2=O)[C@](C)(N=[N+]=[N-])[C@@H]1O)Oc1ccccc1Cl (some centres unmarked) [Compound 236],6400
20,"CCOc1nc(N)nc2c1ncn2[C@@H]1O[C@H](COP(=O)(N[C@@H](C)C(=O)OCc2ccccc2)Oc2ccccc2)[C@@H](O)[C@@]1(C)N=[N+]=[N-] (single isomer, unassigned) [Compound 351]",2600
